From ChEMBL document CHEMBL1125459, “Synthesis and biological activity of 8a-phenyldecahydroquinolines as probes of PCP's binding conformation. A new PCP-like compound with increased in vivo potency” (J Med Chem, 1992)

Tests used:
[1] = Compound was evaluated for its affinity towards NMDA receptor in male Swiss Webster mice.
[2] = Compound was evaluated for its affinity towards N-methyl-D-aspartate glutamate receptor in male Swiss Webster mice.
[3] = test system: Mus musculus; assay: Compound was evaluated in vivo for effective dose by subcutaneous administration in mice using cGMP assay; assay type: functional; conditions: sc

Row | Structure (SMILES) | IC50 [1] [µM] | IC50 [2] [µM] | ED50 [3] [mg/kg]
1 | c1ccc([C@@]23CCCC[C@@H]2CCCN3)cc1 | 0.159 |  | 
2 | c1ccc([C@]23CCCC[C@H]2CCCN3)cc1 |  | 0.467 | 
3 | c1ccc([C@@]23CCCC[C@H]2CCCN3)cc1 |  | 0.0663 | 0.16
4 | c1ccc([C@]23CCCC[C@@H]2CCCN3)cc1 | 0.0946 |  | 
5 | C[C@]12N[C@H](Cc3ccccc31)c1ccccc12 [DIZOCILPINE] |  | 0.0014 | 0.3
6 | c1ccc(C2(N3CCCCC3)CCCCC2)cc1 [PHENCYCLIDINE] |  | 0.035 | 
